Source: ChEMBL document CHEMBL1127476, “3-substituted thieno[2,3-b][1,4]thiazine-6-sulfonamides. A novel class of topically active carbonic anhydrase inhibitors” (J Med Chem, 1994)
≈ marks a conversion by molar mass, not a printed value.

Columns and labels:
[1] = The pKa value in 30% EtOH/H2O; format: physicochemical
Oryctolagus cuniculus [2] = species on record: Oryctolagus cuniculus
Description: Reduction of the elevated intraocular pressure (IOP) in alpha-chymotrypsin treated albino rabbit

Oryctolagus cuniculus [3] = species on record: Oryctolagus cuniculus; remark: listed apart in the source
Description: Change in intraocular pressure (IOP) was measured in the normotensive pigmented rabbit

Oryctolagus cuniculus [4] = species on record: Oryctolagus cuniculus; remark: listed apart in the source
Description: Change in intraocular pressure (IOP) was measured in the normotensive pigmented rabbit in presence of MK-927

physchem = conditions: pH 5.2 buffer, pH 5.2, Solubility
[5] = buffer, pH 5.2
Description: Solubility in pH 5.2 buffer

Carbonic anhydrase 2 [6] = target: T1, Carbonic anhydrase 2 (Homo sapiens, UniProt P00918)
Description: Tested for ability to inhibit human erythrocyte carbonic-anhydrase-II- (HCA II) catalyzed carbon dioxide hydration

Carbonic anhydrase 2 [7] = target: T1, Carbonic anhydrase 2; remark: listed apart in the source
Description: Tested for ability to compete with dansylamide for binding to human erythrocyte carbonic-anhydrase-II (HCA-II)

| Compound | pKa [1] | solubility (physchem) | solubility [5] | IC50 (Carbonic anhydrase 2 [6]) | Ki (Carbonic anhydrase 2 [7]) | Delta IOP (Oryctolagus cuniculus [2]) | Delta IOP (Oryctolagus cuniculus [3]) | Delta IOP (Oryctolagus cuniculus [4]) |
| --- | --- | --- | --- | --- | --- | --- | --- | --- |
| NS(=O)(=O)c1cc2c(s1)S(=O)(=O)C(CCN1CCOCC1)CN2 (configuration not stated) | 3.23 | 2100 µg/mL (≈ 5.5 mM) |  |  |  | 5 mmHg | -2.8 mmHg | -4.4 mmHg |
| CC(C)CN[C@H]1CCS(=O)(=O)c2sc(S(N)(=O)=O)cc21 (stereo in doubt; form 2) [SEZOLAMIDE] |  |  | 33000 µg/mL (≈ 97.5 mM) |  |  |  |  |  |
| NS(=O)(=O)c1cc2c(s1)S(=O)(=O)CC(=O)N2 | 7.43 | 600 µg/mL (≈ 2.13 mM) |  | 3.7 nM | 2.9 nM |  |  |  |
| COCCOCCN(CCOC)C(=O)CC1C(=O)Nc2cc(S(N)(=O)=O)sc2S1(=O)=O (configuration not stated) |  |  |  | 2.18 nM | 3.6 nM |  |  |  |
| COCCOCCN(CCOC)CCC1CNc2cc(S(N)(=O)=O)sc2S1(=O)=O (configuration not stated) | 6.55 | 11800 µg/mL (≈ 25 mM) |  | 1.45 nM | 4.14 nM | 6 mmHg | -1.6 mmHg | -5.3 mmHg |
| COCCN(CCOC)CCC1CNc2cc(S(N)(=O)=O)sc2S1(=O)=O (configuration not stated) | 6.4 | > 6700 µg/mL |  | 2.14 nM | 0.97 nM | 4 mmHg | -4.1 mmHg | -5.1 mmHg |
| CC(C)CN[C@H]1CCS(=O)(=O)c2sc(S(N)(=O)=O)cc21 (stereo in doubt; form 1) [SEZOLAMIDE] |  |  | > 16000 µg/mL |  |  |  |  |  |
| COCCOCCN(CCOC)CCC1C(=O)Nc2cc(S(N)(=O)=O)sc2S1(=O)=O (configuration not stated) |  |  |  | 5.15 nM | 4.14 nM |  |  |  |

More lines, main results first:

| pKa [1] | solubility (physchem) | solubility [5] | IC50 (Carbonic anhydrase 2 [6]) | Ki (Carbonic anhydrase 2 [7]) | Compound | Delta IOP (Oryctolagus cuniculus [2]) | Delta IOP (Oryctolagus cuniculus [3]) | Delta IOP (Oryctolagus cuniculus [4]) |
| --- | --- | --- | --- | --- | --- | --- | --- | --- |
| 8.18 | 24000 µg/mL (≈ 65.3 mM) |  | 2.9 nM | 4.05 nM | CC(C)CNCCC1CNc2cc(S(N)(=O)=O)sc2S1(=O)=O (configuration not stated) | -4.5 mmHg | -2.1 mmHg | -6.2 mmHg |
| 8.45 | 4500 µg/mL (≈ 14.4 mM) |  | 1.9 nM | 1.19 nM | NS(=O)(=O)c1cc2c(s1)S(=O)(=O)C(CCO)CN2 (configuration not stated) |  |  |  |
| 8.8 | 190 µg/mL (≈ 0.708 mM) |  | 2.46 nM | 3.36 nM | NS(=O)(=O)c1cc2c(s1)S(=O)(=O)CCN2 |  |  |  |
| 3.65 | 30 µg/mL (≈ 0.0825 mM) |  |  |  | CC(C)CNC(=O)CC1Sc2sc(S(N)(=O)=O)cc2NC1=O (configuration not stated) |  |  |  |
| 9.62 | 640 µg/mL (≈ 2.28 mM) |  |  |  | NS(=O)(=O)c1cc2c(s1)SC(CCO)CN2 (configuration not stated) |  |  |  |
|  |  |  | 12.8 nM | 24 nM | NS(=O)(=O)c1cc2c(s1)SCC(=O)N2 |  |  |  |
| 4.3 | 2400 µg/mL (≈ 7.78 mM) |  |  | 47.5 nM | NS(=O)(=O)c1cc2c(s1)SC(CC(=O)O)C(=O)N2 (configuration not stated) |  |  |  |
| 8.29 | 520 µg/mL (≈ 1.77 mM) |  | 2 nM | 10.9 nM | NS(=O)(=O)c1cc2c(s1)S(=O)(=O)C1(CC1)CN2 |  |  |  |
